pIC50: −log10 of the molar value.
Key:
[1] = target: T1, human TRPA1 ion channel (Homo sapiens, UniProt O75762); experiment: Assay A: TRPA1 assay (FLIPRtetra, AITC-induced intracellular calcium); assay type: cell-based; conditions: HEK293 cell line over-expressing human TRPA1, AITC agonism (final 10 μM), AUC of calcium signal, read-out: hTRPA1 IC50
T1 construct: host or cells: HEK293
Method: A human HEK293 cell line over-expressing the human TRPA1 ion channel (Perkin Elmer, Product No. AX-004-PCL) is used as a test system for compound efficacy and potency. Compound activity is determined by measuring the effect of compounds on intracellular calcium concentration induced by AITC (Allylisothiocyanat) agonism in a FLIPRtetra system (Molecular Devices).
The cells are obtained as frozen cells in cryo-vials and stored until use at −150° C.
Cells are grown in culture medium (MEM/EBSS medium with 10% FCS and 0.4 mg/ML Geneticin). […] For sub-culturing cells are detached from flasks by Versene. At the day before the assay, cells are detached, washed twice with medium (MEM/EBSS medium with 10% FCS) and 20000 cells in 20 μl/well are seeded to Poly D-Lysin biocoated 384-well plates (black, clear bottom, Cat. 356697) from Corning. Plates are incubated for 24 hours at 37° C./5% C02 before use in the assay.
The test compounds are dissolved in 100% DMSO at a concentration of 10 mM and in a first step diluted in DMSO to a concentration of 5 mM, followed by serial dilution steps in 100% DMSO. Dilution factor and number of dilution steps may vary according to needs. Typically 8 different concentrations by 1:5 dilutions are prepared, further intermediate dilutions (1:20) of the substances are carried out with HBSS/HEPES buffer (1×HEPES, Cat. 14065 from Gibco, 20 mM HEPES, Cat. 83264 from SIGMA, 0.1% BSA Cat. 11926 from Invitrogen, pH 7.4
At the assay day cells are washed 3× with assay puffer, 20 μL buffer remaining in the wells after washing. 10 μL Ca6 kit (Cat. R8191 Molecular Devices) loading buffer in HBSS/HEPES is added to the cells and the plates are incubated with lid for 120 minutes at 37°/5% CO2. 10 μL of compound or controls in HBSS/HEPES buffer/5% DMSO from the intermediate dilution plate are carefully added to the wells. […] Finally 10 μL of the agonist AITC 50 μM dissolved in HBSS/HEPES buffer/0.05% DMSO (final concentration 10 μM) is added to the wells followed by an additional read on the FLIPRtetra device for 10 minutes. The area under the signal curve (AUC) after AITC addition is used for IC50/% inhibition calculations
Data Evaluation and Calculation:
Each assay microtiter plate contains wells with vehicle (1% DMSO) controls instead of compound as controls for AITC induced luminescence (100% CTL; high controls) and is wells with vehicle controls without AITC as controls for non-specific changes in luminescence (0% CTL; low controls).
The analysis of the data is performed by the calculation of the area under signal curve of the individual wells. Based on this values the % value for the measurement of each substance concentration is calculated (AUC(sample)−AUC(low))*100/(AUC(high)−AUC(low)) using MegaLab software (in house development). The IC50 values are calculated from the % control values using MegaLab software. Calculation: [y=(ad)/(1+(x/c)^b)+d], a=low value, d=high value; x=conc M; c=IC50 M; b=hill; y=% ctrl

[2] = Assay B: Microsomal clearance; assay type: in vitro ADME, human; conditions: pooled liver microsomes 1 mg/ml, test compound 1 μM, 37° C., NADPH; clearance as % of hepatic blood flow
Method: Assay B: Microsomal Clearance:
The metabolic degradation of the test compound is assayed at 37° C. with pooled liver microsomes. The final incubation volume of 100 μl per time point contains TRIS buffer pH 7.6 at RT (0.1 M), magnesium chloride (5 mM), microsomal protein (1 mg/ml) and the test compound at a final concentration of 1 μM.
Following a short preincubation period at 37° C., the reactions are initiated by addition of beta-nicotinamide adenine dinucleotide phosphate, reduced form (NADPH, 1 mM) and terminated by transferring an aliquot into solvent after different time points (0, 5, 15, 30, 60 min). Additionally, the NADPH-independent degradation is monitored in incubations without NADPH, terminated at the last time point. The [%] remaining test compound after NADPH independent incubation is reflected by the parameter c (control) (metabolic stability). The quenched incubations are pelleted by centrifugation (10000 g, 5 min).
An aliquot of the supernatant is assayed by LC-MS/MS for the amount of parent compound. The half-life (t½ INVITRO) is determined by the slope of the semilogarithmic plot of the concentration-time profile.
The intrinsic clearance (CL_[…]) is calculated by considering the amount of protein in the incubation: CL_[…] [μl/min/mg protein]=(Ln 2/(half-life [min]*protein content [mg/ml]))*1000 CL_[…]_INVIVO [ml/min/kg]=(CL_[…] [μL/min/mg protein]×MPPGL [mg protein/g liver]×liver factor [g/kg bodyweight])/1000 Qh [%]=CL [ml/min/kg]/hepatic blood flow [ml/min/kg])
(§1) Hepatocellularity, human: 120×10e6 cells/g liver
(§2) Liver factor, human: 25.7 g/kg bodyweight
(§3) Blood flow, human: 21 ml/(min×kg)

[3] = Assay C: Hepatocyte clearance; assay type: in vitro ADME, human; conditions: cryopreserved hepatocyte suspension, test compound 1 μM, up to 6 h; predicted clearance as % of hepatic blood flow
Method: Assay C: Hepatocyte Clearance
The metabolic degradation of the test compound is assayed in a hepatocyte suspension. Hepatocytes (cryopreserved) are incubated in Dulbecco's modified eagle medium (supplemented with 3.5 μg glucagon/500 mL, 2.5 mg insulin/500 mL and 3.75 mg/500 mL hydrocortison) containing 5% or 50% species serum.
The cells are incubated for six hours (incubator, orbital shaker) and samples (25 μl) are taken at 0, 0.5, 1, 2, 4 and 6 hours. Samples are transferred into acetonitrile and pelleted by centrifugation (5 min). The supernatant is transferred to a new 96-deepwell plate, evaporated under nitrogen and resuspended.
Decline of parent compound is analyzed by HPLC-MS/MS
CLint is calculated as follows CL_[…]=Dose/AUC=(CO/CD)/(AUD+clast/k)×1000/60. CO: initial concentration in the incubation [P M], CD: cell density of vital cells [10e6 cells/mL], AUD: area under the data [μM×h], clast: concentration of last data point [μM], k: slope of the regression line for parent decline [h−1].
The calculated in vitro hepatic intrinsic clearance can be scaled up to the intrinsic in vivo hepatic Clearance and used to predict hepatic in vivo blood clearance (CL) by the use of a liver model (well stirred model). CL_[…]_INVIVO [ml/min/kg]=(CL_[…] [μL/min/10e6 cells]×hepatocellularity [10e6 cells/g liver]×liver factor [g/kg bodyweight])/1000 CL [ml/min/kg]=CL_[…]_INVIVO [ml/min/kg]×hepatic blood flow [ml/min/kg]/(CL_[…]_INVIVO [ml/min/kg]+hepatic blood flow [ml/min/kg]) Qh [%]=CL [ml/min/kg]/hepatic blood flow [ml/min/kg])
as §1, §2, §3

T1 sequence (O75762 whole entry): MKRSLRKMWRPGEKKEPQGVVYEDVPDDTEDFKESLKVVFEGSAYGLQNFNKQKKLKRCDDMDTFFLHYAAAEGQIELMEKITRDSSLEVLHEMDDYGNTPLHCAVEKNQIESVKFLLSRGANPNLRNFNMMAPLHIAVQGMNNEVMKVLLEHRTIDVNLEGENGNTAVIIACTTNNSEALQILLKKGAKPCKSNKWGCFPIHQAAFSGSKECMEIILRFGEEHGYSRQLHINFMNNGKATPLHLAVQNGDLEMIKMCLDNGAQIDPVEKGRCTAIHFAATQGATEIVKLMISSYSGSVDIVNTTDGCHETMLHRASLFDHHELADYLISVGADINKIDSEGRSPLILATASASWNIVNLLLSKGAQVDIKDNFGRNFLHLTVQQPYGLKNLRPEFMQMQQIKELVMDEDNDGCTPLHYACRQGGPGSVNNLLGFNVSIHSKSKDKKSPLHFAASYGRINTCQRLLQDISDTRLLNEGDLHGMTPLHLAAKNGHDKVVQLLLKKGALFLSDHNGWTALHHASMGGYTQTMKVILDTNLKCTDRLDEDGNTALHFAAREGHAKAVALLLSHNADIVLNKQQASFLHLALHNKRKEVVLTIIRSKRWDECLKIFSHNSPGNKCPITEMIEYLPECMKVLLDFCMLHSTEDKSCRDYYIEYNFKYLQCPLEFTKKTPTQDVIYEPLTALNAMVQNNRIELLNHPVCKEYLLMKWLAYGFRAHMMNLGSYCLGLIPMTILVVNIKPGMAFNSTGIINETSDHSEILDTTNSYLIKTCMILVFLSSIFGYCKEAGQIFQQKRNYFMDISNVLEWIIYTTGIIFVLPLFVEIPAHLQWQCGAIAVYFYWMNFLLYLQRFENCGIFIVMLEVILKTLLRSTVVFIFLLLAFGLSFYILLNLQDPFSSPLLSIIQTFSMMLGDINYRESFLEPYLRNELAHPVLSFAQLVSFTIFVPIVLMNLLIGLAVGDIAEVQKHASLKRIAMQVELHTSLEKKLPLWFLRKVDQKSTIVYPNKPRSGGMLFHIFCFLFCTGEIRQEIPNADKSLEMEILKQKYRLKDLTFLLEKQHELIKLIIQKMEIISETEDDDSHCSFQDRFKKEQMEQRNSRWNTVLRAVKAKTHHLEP

| Structure (SMILES) | pIC50 [1] | human LM [% Qh] [2] [% Qh] | human Hepatocytes [% Qh] [3] [% Qh] |
| --- | --- | --- | --- |
| CN1C(=O)COc2ncn(Cc3nnn(C[C@H](O)c4ccc(C#N)s4)n3)c(=O)c21 [Example 16] | 6.63 | <23 | <4 |
| C[C@H]1Oc2ncn(Cc3nnn(C[C@H](O)c4ccc(Cl)cc4)n3)c(=O)c2N(C)C1=O [Example 23] | 7.28 | 25 | 36 |
| CN1C(=O)COc2ncn(Cc3nnn(C[C@H](O)c4ccc5c(c4)OCO5)n3)c(=O)c21 [Example 14] | 6.72 | <23 | 5 |
| CN1C(=O)COc2ncn(Cc3nnn(C[C@H](O)c4cc5ccccc5s4)n3)c(=O)c21 [Example 3] | 7.64 | <23 | 18 |
| CN1C(=O)COc2ncn(Cc3nnn(C[C@H](O)c4cc5cc(Cl)c(F)cc5o4)n3)c(=O)c21 [Example 11] | 7.09 | 34 | 29 |
| CN1C(=O)COc2ncn(Cc3nnn(C[C@H](O)c4cc5cc(F)c(Cl)cc5o4)n3)c(=O)c21 [Example 15] | 6.64 | 26 | 29 |
| CN1C(=O)COc2ncn(Cc3nnn(C[C@H](O)c4cc5cc(Cl)ccc5o4)n3)c(=O)c21 [Example 4] | 7.49 | <23 | 31 |
| CN1C(=O)C(F)(F)Oc2ncn(Cc3nnn(C[C@H](O)c4ccc(Cl)cc4)n3)c(=O)c21 [Example 22] | 7.13 | 35 | 12 |
| CN1C(=O)COc2ncn(Cc3nnn(C[C@H](O)c4ccc5cc(C#N)oc5c4)n3)c(=O)c21 [Example 19] | 6.67 | <23 | 19 |
| CN1C(=O)COc2ncn(Cc3nnn(C[C@H](O)c4cc5cccc(F)c5o4)n3)c(=O)c21 [Example 18] | 6.82 | <23 | 8 |
| CN1C(=O)COc2ncn(Cc3nnn(C[C@H](O)c4cc5cc(F)ccc5o4)n3)c(=O)c21 [Example 6] | 7.35 | <23 | 13 |
| CN1C(=O)COc2ncn(Cc3nnn(C[C@H](O)c4cc(Cl)c(Cl)s4)n3)c(=O)c21 [Example 5] | 7.41 | <23 | 29 |
| CN1C(=O)COc2ncn(Cc3nnn(C[C@H](O)c4cc5ccc(F)cc5s4)n3)c(=O)c21 [Example 2] | 7.82 | <23 | 16 |
| Cc1ccc([C@@H](O)Cn2nnc(Cn3cnc4c(c3=O)N(C)C(=O)CO4)n2)cc1 [Example 9] | 7.14 | <23 | 5 |
| CN1C(=O)COc2ncn(Cc3nnn(C[C@H](O)c4ccc(Cl)s4)n3)c(=O)c21 [Example 10] | 7.10 | <23 | <4 |
| CN1C(=O)COc2ncn(Cc3nnn(C[C@H](O)c4ccc(Cl)cc4)n3)c(=O)c21 [Example 1, 3-({2-[(2R)-2-(4-chlorophenyl)-2-hydroxyethyl]-2H-1,2,3,4-tetrazol-5-yl}methyl)-5-methyl-3H,4H,5H,6H,7H-pyrimido[4,5-b][1,4]oxazine-4,6-dione] | 7.28 | <23 | 7 |
| CN1C(=O)COc2ncn(Cc3nnn(C[C@H](O)c4ccc(Br)cc4)n3)c(=O)c21 [Example 8] | 7.21 | <23 | 11 |
| COc1ccc([C@@H](O)Cn2nnc(Cn3cnc4c(c3=O)N(C)C(=O)CO4)n2)cc1 [Example 17] | 6.61 | <23 | 13 |
| CN1C(=O)COc2ncn(Cc3nnn(C[C@H](O)c4cc5cc(F)c(F)cc5o4)n3)c(=O)c21 [Example 7] | 7.22 | <23 | 21 |
| C[C@@H]1Oc2ncn(Cc3nnn(C[C@H](O)c4ccc(Cl)cc4)n3)c(=O)c2N(C)C1=O [Example 24] | 7.00 | <23 | 16 |
| CN1C(=O)COc2ncn(Cc3nnn(C[C@H](O)c4cc5ccc(F)cc5o4)n3)c(=O)c21 [Example 13] | 6.84 | <23 | 10 |
| CN1C(=O)CSc2ncn(Cc3nnn(C[C@H](O)c4ccc(Cl)cc4)n3)c(=O)c21 [Example 21] | 6.81 | <23 | 6 |
| CN1C(=O)CCc2ncn(Cc3nnn(C[C@H](O)c4ccc(Cl)cc4)n3)c(=O)c21 [Example 20] | 6.85 | <23 | <4 |
| CN1C(=O)COc2ncn(Cc3nnn(C[C@H](O)c4cc5ccccc5o4)n3)c(=O)c21 [Example 12] | 6.94 | <23 | 8 |
